Values quoted from earlier work as cited in patent US20240000809A1, “IMPROVED USE OF CANNABINOIDS IN THE TREATMENT OF EPILEPSY” (ORCOSA INC., priority 2020, published 2024).

Conditions: ingested orally, extensive first pass metabolism

For `C=C(C)[C@@H]1CCC(C)=C[C@H]1c1c(O)cc(CCCCC)cc1O` [CBD, cannabidiol], the bioavailability is listed as 6 to 11%.
